target: Tyrosine-protein kinase BTK (Homo sapiens, UniProt Q06187); test: Biochemical Btk Assay: A generalized procedure for a standard biochemical Btk Kinase Assay that can be used to test Formula I compounds is as follows. A master mix minus Btk enzyme is prepared containing 1x Cell Signaling kinase buffer (25 mM Tris-HCl, pH 7.5, 5 mM beta-glycerophosphate, 2 mM dithiothreitol, 0.1 mM Na3VO4, 10 mM MgCl2), 0.5 μM Promega PTK Biotinylated peptide substrate 2, and 0.01% BSA. A master mix plus Btk enzyme is prepared containing 1x Cell Signaling kinase buffer, 0.5 μM PTK Biotinylated peptide substrate 2, 0.01% BSA, and 100 ng/well (0.06 mU/well) Btk enzyme. Btk enzyme is prepared as follows: full length human wildtype Btk (accession number NM-000061) with a C-terminal V5 and 6xHis tag was subcloned into pFastBac vector for making baculovirus carrying this epitope-tagged Btk.
Sequence (Q06187 whole entry): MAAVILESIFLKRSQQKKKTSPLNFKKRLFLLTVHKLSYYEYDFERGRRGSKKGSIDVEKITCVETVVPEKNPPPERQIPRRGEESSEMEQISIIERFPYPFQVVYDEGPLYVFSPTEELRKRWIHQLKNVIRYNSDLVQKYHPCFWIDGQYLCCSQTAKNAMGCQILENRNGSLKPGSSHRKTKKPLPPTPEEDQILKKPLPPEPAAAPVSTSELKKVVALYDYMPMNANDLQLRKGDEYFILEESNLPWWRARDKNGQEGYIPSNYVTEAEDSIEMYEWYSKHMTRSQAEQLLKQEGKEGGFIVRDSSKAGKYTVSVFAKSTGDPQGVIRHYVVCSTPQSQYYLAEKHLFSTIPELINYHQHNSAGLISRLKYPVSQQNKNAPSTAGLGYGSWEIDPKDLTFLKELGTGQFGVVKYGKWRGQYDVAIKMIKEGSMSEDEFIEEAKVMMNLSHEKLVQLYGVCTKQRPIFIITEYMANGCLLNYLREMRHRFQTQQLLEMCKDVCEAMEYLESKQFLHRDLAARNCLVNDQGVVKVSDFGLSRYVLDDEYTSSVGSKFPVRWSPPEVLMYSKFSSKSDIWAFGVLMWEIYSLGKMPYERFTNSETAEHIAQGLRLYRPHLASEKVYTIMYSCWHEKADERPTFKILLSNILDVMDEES

In order of falling IC50:
1. Cc1c(-c2cn(C)c(=O)c(Nc3ccc(C4C(=O)N(C)CCN4C)cc3)n2)cccc1N1Cc2cc(N3CCCCC3)ccc2C1=O (stereo not drawn)  245 nM
2. Cc1c(-c2cn(C)c(=O)c(Nc3ccc(C(=O)N4CCOCC4)cc3)n2)cccc1N1Cc2cc(C(C)(C)C)ccc2C1=O  36.4 nM
3. Cc1c(-c2cn(C)c(=O)c(Nc3ccc(C4C(=O)N(C)CCN4C)cc3)n2)cccc1N1Cc2cc(C(C)(C)C)ccc2C1=O (stereo not drawn)  29.4 nM

Source: ChEMBL document CHEMBL3886504, “Pyridinones/pyrazinones, method of making, and method of use thereof” (2016)
